Test results from patent US20140296170A1, “PHARMACEUTICAL COMPOSITION FOR PREVENTION OR TREATMENT OF BONE DISEASES COMPRISING SPINASTEROL GLUCOSIDE DERIVATIVE” (Lifetree Biotech Co., Ltd., priority 2013, published 2014).

Key:
[1] = system: cartilage of SD rats (osteoblast defected (OD) models); test: Cartilage regeneration in osteoblast defected (OD) models; format: in vivo; settings: 1 mg/kg orally once every two days for 4 weeks
Procedure: The cartilage regeneration activity of spinasterol glucoside derivatives were evaluated in osteoblast defected (OD) models which were widely used in study on the regeneration of degenerative articular cartilage. The cartilage of SD rats, at least 9 weeks of age, was destroyed by a […] drill, followed by suturing the muscle and lipid tissues so as to allow them to go about normal daily life. Then, 3-o-β-D-glucopyranosyl-spinasterol dissolved in distilled water was orally administered at a dose of 1 mg/kg once every two days for 4 weeks. Afterwards, the animals were sacrificed, and opened around the knee to take articular cartilage tissues, followed by decalcification for 4 weeks. The cartilage tissues thus softened were paraffinized, and dyed with Safran O solution to visualize the regeneration of the cartilage.

[2] = system: collagen-induced arthritis in DBA1/J mice; test: Collagen-induced arthritis model in DBA1/J mice; format: in vivo; settings: FIG. 1

CC[C@H](/C=C/[C@@H](C)[C@H]1CC[C@H]2C3=CC[C@H]4C[C@@H](O[C@@H]5O[C@H](CO)[C@@H](O)[C@H](O)[C@H]5O)CC[C@]4(C)[C@H]3CC[C@]12C)C(C)C [3-o-β-D-glucopyranosyl-spinasterol]
levels of chondrocytes ([1]; SD rats OD model): greatly increased levels
levels of mast cells ([1]; SD rats OD model): greatly increased levels
levels of mucin ([1]; SD rats OD model): greatly increased levels
regeneration of cartilage tissues (Safran O staining) ([1]; SD rats, cartilage destroyed by drill, compared to the control (b), FIG. 2): significant regeneration of cartilage tissues
degree of collagen-induced arthritis (clinical severity by paw swelling, verified by micro-CT morphometry) ([2]; CII/CFA immunization, 10 μM/kg of weight three times a week for 28 days, observed 42 days later, compared to the positive control (CIA)): reduced in the degree of collagen-induced arthritis
regeneration of cartilage at the worn joint ([2]; collagen-induced arthritis, 10 μM/kg three times a week for 28 days): showed regeneration of cartilage at the worn joint
